Results from patent US20250312258A1, “2,3-PYRROLIDINEDIONE CONJUGATES AND METHODS OF USING THEREOF” (North Carolina State University, priority 2022, published 2025).
Values after ≈ are worked out from the molar mass of the structure shown. Like-named read-outs stand apart in the source and are kept apart here.

Columns and labels:
VRE = test: MIC / in vitro activity against VRE strain panel; format: cell-based, Enterococcus spp.; settings: for MIC: Enterococcus, VRE, the 6th table, read-out: MIC
E. coli = test: MIC against E. coli strains; format: cell-based; settings: the 4th table
Group B Strep = test: MIC against Group B Strep strain panel; format: cell-based; settings: read-out: MIC
MRSA 33591 = test: Broth microdilution MIC, MRSA 33591; format: cell-based; settings: Staphylococcus aureus, read-out: MIC (MRSA 33591)
S. aureus 29213 = test: Broth microdilution MIC, S. aureus 29213; format: cell-based, Staphylococcus aureus; settings: Staphylococcus aureus
ATCC 29212 E. faecalis = test: MIC against ATCC 29212 E. faecalis; format: cell-based; settings: Enterococcus faecalis, ATCC29212, ATCC 29212 E. faecalis, read-out: MIC
S. aureus 25923 = test: Broth microdilution MIC, S. aureus 25923; format: cell-based, Staphylococcus aureus; settings: Staphylococcus aureus, 25923; read-out: MIC (S. aureus 25923)
VRSA [1] = test: MIC against VRSA (Table 2); format: cell-based; settings: Staphylococcus aureus, read-out: MIC (VRSA)
vanA VRE 700221 = test: MIC against vanA VRE 700221; format: cell-based, Enterococcus spp.; settings: Enterococcus
VRSA [2] = test: MIC against VRSA strain panel (VRS/NRS strains); format: cell-based; settings: Staphylococcus aureus, read-out: MIC
MSSA = test: MIC against MSSA strain panel; format: cell-based; settings: Staphylococcus aureus, the 4th table, read-out: MIC

In the case of `CCC1C(c2ccc(C(F)(F)F)cc2)=C(O)C(=O)N1C1CCC(NC)CC1` (stereo not shown) [Compound 4], the MIC (VRE; 3239 VRE) is reported as 8 µg/mL (≈ 20.9 µM), the MIC (VRE; 3241 VRE) is reported as 8 µg/mL (≈ 20.9 µM) and the MIC (VRE; 3623 VRE) is reported as 8 µg/mL (≈ 20.9 µM). The “in vitro activity against vancomycin-resistant Enterococcus spp. (VRE) compared with vancomycin” value (VRE; FIGS. 4A-4D) was “superior in vitro activity”, the MIC (E. coli; AR-137 E. coli) was greater than 64 µg/mL and the MIC (E. coli; Escherichia coli, ATCC25922, ATCC 25922 E. coli, read-out: MIC) was greater than 64 µg/mL. The MIC (E. coli; Escherichia coli, AR-451 E. coli, read-out: MIC) was greater than 64 µg/mL, the MIC (Group B Strep; 2008-57 Group B Strep, the 9th table) was 0.5 µg/mL (≈ 1.31 µM) and the MIC (Group B Strep; 2008-70 Group B Strep, the 9th table) was 0.5 µg/mL (≈ 1.31 µM). The MIC (Group B Strep; 2008-87 Group B Strep, CA-MHB w/5% LHB, the 4th table) was 0.5 µg/mL (≈ 1.31 µM), the MIC (Group B Strep; 2008-115 Group B Strep, the 9th table) was 0.5 µg/mL (≈ 1.31 µM) and the MIC (Group B Strep; 2009-20 Group B Strep, the 9th table) was 0.5 µg/mL (≈ 1.31 µM). The MIC (Group B Strep; 2009-40 Group B Strep, the 9th table) was 0.5 µg/mL (≈ 1.31 µM), the MIC (Group B Strep; 2009-43 Group B Strep, the 9th table) was 0.5 µg/mL (≈ 1.31 µM) and the MIC (Group B Strep; 2009-51 Group B Strep, the 9th table) was 0.5 µg/mL (≈ 1.31 µM). It also gave an MIC (Group B Strep; 2009-57 Group B Strep, the 9th table) of 0.5 µg/mL (≈ 1.31 µM), an MIC (Group B Strep; 2009-59 Group B Strep, the 9th table) of 0.5 µg/mL (≈ 1.31 µM) and an MIC (Group B Strep; 2009-60 Group B Strep, the 9th table) of 0.5 µg/mL (≈ 1.31 µM). The MIC (Group B Strep; 2009-61 Group B Strep, CA-MHB w/5% LHB, the 4th table) was 0.5 µg/mL (≈ 1.31 µM), the MIC (Group B Strep; 2009-62 Group B Strep, CA-MHB w/5% LHB, the 4th table) was 0.25 µg/mL (≈ 0.654 µM) and the MIC (Group B Strep; J4182 Group B Strep, the 9th table) was 0.5 µg/mL (≈ 1.31 µM). The MIC (Group B Strep; J4183 Group B Strep, the 9th table) was 0.5 µg/mL (≈ 1.31 µM), the MIC (Group B Strep; J4185 Group B Strep, the 9th table) was 0.5 µg/mL (≈ 1.31 µM) and the MIC (Group B Strep; J4186 Group B Strep, the 9th table) was 0.5 µg/mL (≈ 1.31 µM). The MIC (Group B Strep; J4222 Group B Strep, the 9th table) was 0.5 µg/mL (≈ 1.31 µM), the MIC (MRSA 33591) was 1 µg/mL (≈ 2.61 µM) and the MIC (S. aureus 29213; 29213, read-out: MIC (S. aureus 29213)) was 0.5 to 1 µg/mL (≈ 1.31 to 2.61 µM). The MIC (S. aureus 29213; ATCC 29213 / MRSA, ATCC 29213 MRSA, the 4th table, read-out: MIC) was 2 µg/mL (≈ 5.23 µM), the MIC (S. aureus 29213; ATCC 29213 / MRSA, ATCC 29213 MRSA, the 5th table, read-out: MIC) was 1 µg/mL (≈ 2.61 µM) and the MIC (ATCC 29212 E. faecalis; the 4th table) was 2 µg/mL (≈ 5.23 µM). It also gave an MIC (ATCC 29212 E. faecalis; the 6th table) of 2 µg/mL (≈ 5.23 µM), an MIC (S. aureus 25923) of 0.5 µg/mL (≈ 1.31 µM) and an MIC (VRSA [1]) of 1 µg/mL (≈ 2.61 µM). For the same molecule, the MIC (vanA VRE 700221; VRE, the 2nd table, read-out: MIC (vanA VRE 700221)) was 8 µg/mL (≈ 20.9 µM), the MIC (vanA VRE 700221; vanA VRE 700221, the 3rd table, read-out: MIC) was 8 µg/mL (≈ 20.9 µM) and the MIC (VRSA [2]; NRS 1 / VRSA, NRS-1 (VRSA), the 3rd table) was 4 µg/mL (≈ 10.5 µM). For the same molecule, the MIC (VRSA [2]; NRS 1 / VRSA, NRS-1 VRSA, the 5th table) was 4 µg/mL (≈ 10.5 µM), the MIC (VRSA [2]; NRS 2 / VRSA, NRS-2 VRSA, the 5th table) was 2 µg/mL (≈ 5.23 µM) and the MIC (VRSA [2]; VRSA, VRS-1 (VRSA), the 3rd table) was 16 µg/mL (≈ 41.8 µM). For the same molecule, the MIC (VRSA [2]; VRSA, VRS-1 VRSA, the 5th table) was 16 µg/mL (≈ 41.8 µM), the MIC (VRSA [2]; VRSA, VRS-2 (VRSA), the 3rd table) was 4 µg/mL (≈ 10.5 µM) and the MIC (VRSA [2]; VRSA, VRS-2 VRSA, the 5th table) was 4 µg/mL (≈ 10.5 µM). For the same molecule, the MIC (VRSA [2]; VRSA, VRS-3a VRSA, the 5th table) was 4 µg/mL (≈ 10.5 µM), the MIC (VRSA [2]; VRSA, VRS-3b VRSA, the 5th table) was greater than 64 µg/mL and the MIC (VRSA [2]; VRSA, VRS-4 (VRSA), the 3rd table) was 4 µg/mL (≈ 10.5 µM). It also gave an MIC (VRSA [2]; VRSA, VRS-4 VRSA, the 5th table) of 8 µg/mL (≈ 20.9 µM), an MIC (VRSA [2]; VRSA, VRS-5 VRSA, the 5th table) of 8 µg/mL (≈ 20.9 µM) and an MIC (VRSA [2]; VRSA, VRS-6 VRSA, the 5th table) of 16 µg/mL (≈ 41.8 µM). It also gave an MIC (VRSA [2]; VRSA, VRS-7 VRSA, the 5th table) of 8 µg/mL (≈ 20.9 µM), an MIC (VRSA [2]; VRSA, VRS-8 VRSA, the 5th table) of 16 µg/mL (≈ 41.8 µM) and an MIC (VRSA [2]; VRSA, VRS-9 VRSA, the 5th table) of 16 µg/mL (≈ 41.8 µM). It also gave an MIC (VRSA [2]; VRSA, VRS-10 VRSA, the 5th table) of 16 µg/mL (≈ 41.8 µM), an MIC (VRSA [2]; VRSA, VRS-11a VRSA, the 5th table) of 16 µg/mL (≈ 41.8 µM) and an MIC (VRSA [2]; VRSA, VRS-11b VRSA, the 5th table) of 16 µg/mL (≈ 41.8 µM). For the same molecule, the MIC (MSSA; VGP16-94 MSSA) was 1 µg/mL (≈ 2.61 µM), the MIC (MSSA; VGP16-95 MSSA) was 2 µg/mL (≈ 5.23 µM) and the MIC (MSSA; VGP16-96 MSSA) was 1 µg/mL (≈ 2.61 µM). It also gave an MIC (MSSA; VGP16-97 MSSA) of 1 µg/mL (≈ 2.61 µM), an MIC (MSSA; VGP16-98 MSSA) of 1 µg/mL (≈ 2.61 µM) and an MIC (MSSA; VGP16-99 MSSA) of 1 µg/mL (≈ 2.61 µM). For the same molecule, the MIC (MSSA; VGP16-100 MSSA) was 1 µg/mL (≈ 2.61 µM), the MIC (MSSA; VGP16-101 MSSA) was 1 µg/mL (≈ 2.61 µM) and the MIC (MSSA; VGP16-116 MSSA) was 1 µg/mL (≈ 2.61 µM). For the same molecule, the MIC (MSSA; VGP16-117 MSSA) was 1 µg/mL (≈ 2.61 µM).
